# How the values were obtained:
# Format in all cases: in vivo
# [1] = test system: Tobacco Budworm [Heliothis virescens (Fabricius)] eggs; assay: Tobacco budworm eggs (TBW-E); settings: percent in solution; 2-day old eggs
# Procedure, shortened: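 Paper-towel patches of 2-day-old eggs dipped in acetone solutions of compound (0.1% downward), held on larval rearing medium at 78° F. Mortality scored once all control eggs had hatched and larvae were feeding; LC50 from dosage-mortality curves, expressed as percent compound in solution.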
# [2] = test system: Maize weevil [Sitophilus zeamais (Motschulsky)]; assay: Maize weevil on dipped corn seeds (MW), 48 hours; settings: percent in solution, adult weevils
# Method: The compounds in Tables 1 and 2 above were tested for insecticidal activity using the following testing procedures. LC50 values, based on the results of these tests and calculated according to dosage-mortality curves, are expressed in Table 3.
# Maize weevil [Sitophilus zeamais (Motschulsky)]:
# Test compounds were diluted in a 50:50 acetone:water solution. Four corn seeds [Zea mays (L.)] which had been immersed in test solutions for 2-3 seconds and allowed to dry were placed in containers together with 10 adult weevils. The containers were covered and kept at a temperature of about 25° C. Mortality was recorded after 48 hours. Test concentrations ranged from 0.01% down to that at which 50% mortality occurred. The LC50 values are expressed below in Table 3 under the heading "MW" in terms of percent of the test compound in solution.
# [3] = test system: Cabbage Looper [Trichoplusia ni (Hubner)]; assay: Cabbage looper leaf dip (CL), 3-5 days; settings: percent in solution, second-instar larvae
# Procedure, shortened: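 Squash cotyledons dipped 2-3 s in compound in 50-50 acetone-water, dried, then infested with 5 second-instar larvae and held at high humidity. Mortality scored after 3-5 days at concentrations from 0.1% downward. LC50 from dosage-mortality curves, expressed as percent compound in solution.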
# [4] = test system: Housefly [Musca domestica]; assay: Housefly contact mortality in dishes (HF), 48 hours; settings: μg of test compound per 25 female flies
# Procedure, shortened: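 LC50, as μg compound per 25 female flies, comes from dosage-mortality curves with doses from 100 μg downward. Residues were made by evaporating acetone plus 0.01% peanut oil in dishes, onto which 1-2-day-old females were caged; deaths were counted after 48 hours.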
# [5] = test system: Black Bean Aphid [Aphis fabae (Scop.)]; assay: Black bean aphid spray test on nasturtium (BBA), 48 hours; settings: percent of test compound in sprayed solution
# Procedure, shortened: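 LC50, given as percent test compound in the sprayed liquid, was calculated from dosage-mortality curves using concentrations from 0.05% downward. Sprays in 50:50 acetone-water went to runoff on ~5 cm nasturtiums carrying 25-50 aphids of mixed ages, one day after infestation. Deaths were counted 48 h later under greenhouse conditions.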
SMILES,LC50 TBW E (eggs) [1] [%],LC50 MW [2] [%],LC50 CL [3] [%],LC50 HF [4] [µg],LC50 BBA [5] [%]
CC(C)C(=Nc1ccc(F)c(Cl)c1F)OCc1ccc(F)c(Oc2ccc(Cl)cc2)c1 [Compound 395],0.018,0.004,< 0.1,8.6,0.0001
Cc1cc(N=C(OCc2ccc(F)c(Oc3ccc(F)cc3)c2)C(C)C)ccc1F [Compound 396],< 0.1,> 0.01,0.0017,< 100,0.0002
Cc1cc(N=C(OCc2cccc(Oc3ccc(Cl)cc3)c2)C(C)C)ccc1F [Compound 397],< 0.1,> 0.01,0.0019,< 100,0.002
CC(C)C(=Nc1ccc(F)c(Br)c1)OCc1cccc(Oc2ccc(Cl)cc2)c1 [Compound 398],< 0.1,> 0.01,< 0.1,< 100,0.002
Cc1cc(N=C(OCc2ccc(F)c(Oc3ccc(Cl)cc3)c2)C(C)C)ccc1F [Compound 399],0.025,> 0.01,0.0012,< 100,0.0003
Cc1cc(N=C(OCc2ccc(F)c(Oc3ccccc3)c2)C(C)C)ccc1F [Compound 400],0.025,> 0.01,0.0007,< 100,0.0003
Cc1cccc(N=C(OCc2ccc(F)c(Oc3ccc(Cl)cc3)c2)C(C)C)c1 [Compound 401],0.04,> 0.01,0.0017,< 100,0.0006
Cc1ccc(N=C(OCc2cccc(Oc3ccc(F)cc3)c2)C(C)C)cc1Cl [Compound 402],> 0.1,> 0.01,> 0.1,< 100,0.0006
Cc1ccc(N=C(OCc2cccc(Oc3ccc(Cl)cc3)c2)C(C)C)cc1Cl [Compound 403],> 0.1,> 0.01,> 0.1,< 100,0.001
Cc1ccc(N=C(OCc2ccc(F)c(Oc3ccc(Cl)cc3)c2)C(C)C)cc1Cl [Compound 404],0.025,> 0.01,> 0.1,< 100,0.002
Cc1cccc(N=C(OCc2cccc(Oc3ccc(F)cc3)c2)C(C)C)c1 [Compound 405],> 0.1,> 0.01,> 0.1,< 100,0.0025
Cc1ccc(N=C(OCc2ccc(F)c(Oc3ccc(Cl)cc3)c2)C(C)C)cc1C [Compound 406],< 0.1,> 0.01,> 0.1,< 100,0.001
Cc1cc(N=C(OCc2ccc(F)c(Oc3ccc(Cl)cc3)c2)C(C)C)ccc1Br [Compound 407],0.05,> 0.01,> 0.1,> 100,0.0007
COc1ccc(N=C(OCc2ccc(F)c(Oc3ccc(F)cc3)c2)C(C)C)cc1Cl [Compound 408],0.02,> 0.01,0.0015,< 100,0.0005
COc1ccc(N=C(OCc2ccc(F)c(Oc3ccccc3)c2)C(C)C)cc1Cl [Compound 409],0.025,> 0.01,0.0017,< 100,0.0005

# Reference: patent US5045566A, “Novel imidate insecticides” (ICI Americas Inc., priority 1989, dated 1991)
